From patent publication US4579866A, “Phenylacetamides as anti-allergy, anti-asthma and anti-inflammatory agents” (USV Pharmaceutical Corp., priority 1984, dated 1986) come the findings set out here.

One test concerns the target T1, RAT 5-LIPOXYGENASE (Rattus norvegicus, UniProt P12527).
T1 construct: A suspension of rat neutrophils in buffer; endogenous in cells; host or cells: rat neutrophils (polymorphonuclear leukocytes)
T1 sequence (P12527 1-673): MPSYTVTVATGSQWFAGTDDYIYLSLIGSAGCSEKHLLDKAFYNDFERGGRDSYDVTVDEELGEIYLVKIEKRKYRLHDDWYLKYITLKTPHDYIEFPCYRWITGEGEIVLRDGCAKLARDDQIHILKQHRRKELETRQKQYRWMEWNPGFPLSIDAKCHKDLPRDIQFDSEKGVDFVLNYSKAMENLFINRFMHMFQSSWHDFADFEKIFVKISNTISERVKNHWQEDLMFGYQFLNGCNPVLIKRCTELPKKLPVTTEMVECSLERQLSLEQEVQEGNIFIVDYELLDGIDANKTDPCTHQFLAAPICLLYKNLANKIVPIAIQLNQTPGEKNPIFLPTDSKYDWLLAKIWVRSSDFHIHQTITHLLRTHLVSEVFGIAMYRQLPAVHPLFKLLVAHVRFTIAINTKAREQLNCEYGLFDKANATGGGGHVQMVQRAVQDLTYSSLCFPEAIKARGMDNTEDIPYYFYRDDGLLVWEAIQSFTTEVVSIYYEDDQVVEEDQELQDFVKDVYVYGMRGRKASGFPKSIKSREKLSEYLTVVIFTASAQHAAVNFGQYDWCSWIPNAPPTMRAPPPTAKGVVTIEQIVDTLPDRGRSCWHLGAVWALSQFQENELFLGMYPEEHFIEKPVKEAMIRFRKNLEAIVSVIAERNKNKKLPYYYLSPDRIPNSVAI
Briefly: Biosynthesis of 5-HETE by rat polymorphonuclear leukocytes in vitro (inhibition of rat 5-lipoxygenase). The class given is cell-based. The note with it: rat neutrophils, A23187, 3 minutes at 30° C.; concentration at which 50% inhibition is observed; read-out: INHIBITION OF RAT 5-LIPOXYGENASE, I50. As for the experimental part: Protocol for the Biosynthesis of 5-HETE by Rat Polymorphonuclear Leukocytes In Vitro
A suspension of rat neutrophils in buffer is incubated for 3 minutes at 30° C. with [^14 C]-arachidonic acid (AA) and calcium ionophore A23187. Citric Acid (2M) NDGA (10 mM) is used to quench the reaction. Following the addition of a trace amount of (^3 H)-5-HETE together with an excess of unlabeled 5-HETE to each tube, the mixture is extracted with chloroform/methanol. The organic layer is washed with dilute acid and an aliquot is transferred to glass tubes and dried. The residue is dissolved in a small volume of chloroform and an aliquot is spotted on silica gel TLC sheets, which are developed with an ethyl acetate/isoctane/water/acetic acid solvent system. The 5-HETE spots are visualized under UV light, cut out and placed in scintillation vials for counting. After adjusting for the extraction efficiency, the amount (pmole) of [^14 C]-5-HETE in each of the tubes is quantitated. The net pmoles of 5-HETE are obtained by subtracting the pmoles of 5-HETE in the tubes containing buffer alone (blank) from the pmoles of 5-HETE in the tubes containing […]. The ability of the test compounds to modulate the activity of this enzyme is determined by a decrease or increase in the net amount of 5-HETE produced.
(§1) If the percentage of inhibition exceeds 50%, the compounds are then evaluated in terms of response over a range of concentrations. From a plot of response against concentration, the I50 value is obtained. The I50 value is the concentration at which 50% inhibition is observed.

The next test addresses T2, HUMAN 5 LIPOXYGENASE (Homo sapiens, UniProt P09917).
T2 construct: A suspension of human neutrophils in buffer; endogenous in cells; host or cells: human neutrophils (PMNs) from venous blood of healthy volunteers
T2 sequence (P09917 1-674): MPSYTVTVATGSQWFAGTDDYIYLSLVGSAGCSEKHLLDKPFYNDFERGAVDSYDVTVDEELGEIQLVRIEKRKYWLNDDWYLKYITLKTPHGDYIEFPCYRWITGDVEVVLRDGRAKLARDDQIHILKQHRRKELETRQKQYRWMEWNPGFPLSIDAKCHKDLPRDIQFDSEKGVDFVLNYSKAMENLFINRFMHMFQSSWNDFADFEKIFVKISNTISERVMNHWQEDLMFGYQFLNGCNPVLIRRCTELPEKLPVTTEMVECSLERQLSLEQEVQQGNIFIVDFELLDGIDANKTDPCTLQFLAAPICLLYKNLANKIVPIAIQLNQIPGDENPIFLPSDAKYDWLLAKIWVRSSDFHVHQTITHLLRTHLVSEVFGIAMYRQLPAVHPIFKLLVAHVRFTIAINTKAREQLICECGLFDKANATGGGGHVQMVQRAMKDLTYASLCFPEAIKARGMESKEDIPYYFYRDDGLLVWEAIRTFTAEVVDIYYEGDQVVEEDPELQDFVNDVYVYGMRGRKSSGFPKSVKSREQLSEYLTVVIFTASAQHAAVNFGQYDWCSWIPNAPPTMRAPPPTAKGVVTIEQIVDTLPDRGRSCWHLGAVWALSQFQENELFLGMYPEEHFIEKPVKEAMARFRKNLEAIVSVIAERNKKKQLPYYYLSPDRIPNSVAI
Briefly: Biosynthesis of 5-HETE by human polymorphonuclear leukocytes in vitro (inhibition of human 5-lipoxygenase). It is filed as cell-based. The note with it: human neutrophils, A23187, 3 minutes at 30° C.; for IC50: concentration at which 50% inhibition is observed, read-out: INHIBITION OF HUMAN 5 LIPOXYGENASE, I50. As for the experimental part: Protocol for the Biosynthesis of 5-HETE (5(S)-Hydroxyeicosatetraenoic Acid) by Human Polymorphonuclear Leukocytes In Vitro
(A) Isolation of Human Neutrophils
Freshly drawn venous blood from healthy human volunteers is mixed with 2 mM ethylenediamine tetraacetic acid, and is sedimented at 1×g over 6% dextran-saline. The leukocyte layer is aspirated, and the cells are concentrated by centrifugation and are layered over stacked Percoll® solutions, having densities of 1.072, 1.082 and 1.100, respectively. PMNs are isolated at the interface between the two densest layers after centrifugation at 400×g. Contaminating red blood cells are lysed by a short treatment of 0.16M ammonium chloride.
A suspension of human neutrophils in buffer is incubated for 3 minutes at 30° C. with (^14 C)-arachidonic acid (AA) and calcium ionophore A23187. Citric Acid (2M)/NDGA*(10 mM) is used to quench the reaction. Following the addition of a trace amount of (^3 H)-5-HETE together with an excess of unlabeled 5-HETE to each tube, the mixture is extracted with chloroform/methanol. The organic layer is washed with dilute hydrochloric acid and the total volume is transferred to glass tubes and dried in vacuo. The residue is dissolved in a small volume of chloroform and is spotted on silica gel TLC sheets, which are developed with an ethyl acetate/iso-octane/water/acetic acid solvent system (11/5/10/1 v/v). The 5-HETE spots are visualized under UV light, cut out and placed in scintillation vials for quantitation of radioactivity. After adjusting for the extraction efficiency, the amount (pmole) of (^14 C)-5-HETE in each of the tubes is calculated. The net pmoles of 5-HETE are obtained by subtracting the pmole of 5-HETE in the tubes containing buffer alone (blank) from the pmoles of 5-HETE in the tubes containing […]. The ability of the test compound to modulate the activity of this enzyme is determined by a decrease or increase in the net amount of 5-HETE produced. This assay is a modification of that described by Bach and Brashler for rat peritoneal cells: Bach, M., Brashler, J.: Ionophore A23187-Induced Production of SRS-A by Rat Peritoneal Cells In Vitro: Evidence for Production by Mononuclear Cells. J. Immunol. 120 998-1005 (1978).
*NDGA-nordihydroguaiaretic acid
as §1

With `COC(=O)[C@@H](Cc1ccccc1)NC(=O)Cc1ccc(OCC2CC2)c(Cl)c1` [3-Chloro-4-cyclopropylmethyloxyphenylacetyl-D-phenylalanine methyl ester], the IC50 came to 1000 nM at RAT 5-LIPOXYGENASE and 50 µM at HUMAN 5 LIPOXYGENASE.

As for `COC(=O)[C@@H](Cc1ccccc1)NC(=O)Cc1ccc(OC(C)C)c(Cl)c1` [3-Chloro-4-isopropyloxyphenylacetyl-D-phenylalanine methyl ester], the IC50 on RAT 5-LIPOXYGENASE was 2000 nM. Also, the inhibition (commonly the change of the read-out against control, counted positive when it falls) at 30 µM against HUMAN 5 LIPOXYGENASE worked out at 95%.

As for `COC(=O)[C@@H](Cc1ccccc1)NC(=O)Cc1ccc(OCCc2ccccc2)c(Cl)c1` [3-Chloro-4-phenylethyloxyphenylacetyl-D-phenylalanine methyl ester], the IC50 at RAT 5-LIPOXYGENASE came out at 700 nM; on HUMAN 5 LIPOXYGENASE, 7 µM.

As to `COC(=O)[C@@H](Cc1ccccc1)N(C)C(=O)Cc1ccc(OCCc2ccccc2)c(Cl)c1` [3-Chloro-4-phenylethyloxyphenylacetyl-N--methyl-D-phenylalanine methyl ester], the IC50 at RAT 5-LIPOXYGENASE came out at 5000 nM. Moreover, 30 µM produced 28% inhibition against HUMAN 5 LIPOXYGENASE.

Regarding `COC(=O)[C@@H](Cc1ccccc1)NC(=O)Cc1ccc(OCc2ccccc2)c(Cl)c1` [4-Benzyloxy-3-Chlorophenylacetyl-D-Phenylalanine Methyl Ester], the IC50 is 250 nM at RAT 5-LIPOXYGENASE and 0.6 µM on HUMAN 5 LIPOXYGENASE.

In the case of `COC(=O)[C@@H](Cc1c[nH]c2ccccc12)NC(=O)Cc1ccc(OCc2ccccc2)c(Cl)c1` [4-Benzyloxy-3-chlorophenylacetyl-D-tryptophan methyl ester], the IC50 on RAT 5-LIPOXYGENASE was 5400 nM; at HUMAN 5 LIPOXYGENASE, 14 µM.

Consider `CN(CCc1ccccc1)C(=O)Cc1ccc(OCCc2ccccc2)c(Cl)c1` [N--[3-Chloro-4-phenylethyloxyphenylacetyl]-N--methyl-2-phenylethylamine], for which the IC50 at RAT 5-LIPOXYGENASE was determined as 2200 nM; at HUMAN 5 LIPOXYGENASE, 8 µM.

As to `CN(CCc1ccccc1)C(=O)Cc1ccc(OCc2ccccc2)c(Cl)c1` [N--[4-Benzyloxy-3-chlorophenylacetyl]-N--methyl-2-phenylethylamine], the IC50 at RAT 5-LIPOXYGENASE was determined as 4200 nM; at HUMAN 5 LIPOXYGENASE it was 2 µM.
